In US20090253618A1, “NEURONAL DIFFERENTIATION-INDUCING PEPTIDE AND USE THEREOF” (TOAGOSEI CO., LTD, priority 2005, published 2009):
Ends that are not written are not given here.

What was measured:
[1] = test system: neural stem cells procured from mice; test: Neuronal differentiation-inducing activity in mouse neural stem cell culture (immune antibody procedure, MAPs and NeuN markers); assay type: cell-based; conditions: same tests as for samples 1 and 6 (10 ng/mL and 100 ng/mL, 24 hours), concentration of the result not stated
[2] = test system: adipose stem cells procured from humans; test: Neuronal differentiation-inducing activity in human adipose stem cell culture (immune antibody procedure, MAPs and NeuN markers); assay type: cell-based; conditions: same tests as for samples 1 and 6 (10 ng/mL and 100 ng/mL, 24 hours), concentration of the result not stated

Substance: YARAAARQARA-PLQELCRQRIVAAVG (YARAAARQARAPLQELCRQRIVAAVG) [sample 11]
- degree of neuronal differentiation [1]: significant neuronal differentiation
- degree of neuronal differentiation [2]: significant neuronal differentiation

Substance: YARAAARQARA-TLQHLCRKTVNGHLD (YARAAARQARATLQHLCRKTVNGHLD) [sample 13]
- degree of neuronal differentiation [1]: significant neuronal differentiation
- degree of neuronal differentiation [2]: significant neuronal differentiation

Substance: YARAAARQARA-PLMDLCRRSVRLALG (YARAAARQARAPLMDLCRRSVRLALG) [sample 20]
- degree of neuronal differentiation [1]: significant neuronal differentiation
- degree of neuronal differentiation [2]: significant neuronal differentiation

Substance: YARAAARQARA-ALFELCGRAV (YARAAARQARAALFELCGRAV) [sample 23, PTD4 plus 10 residues from the N terminal of the BC-box of MUF1]
- degree of neuronal differentiation [1]: significant neuronal differentiation
- degree of neuronal differentiation [2]: significant neuronal differentiation

Substance: YARAAARQARA-SLQHICRMSI (YARAAARQARASLQHICRMSI) [sample 17, PTD4 plus 10 residues from the N terminal of the BC-box of mWSB-1]
- degree of neuronal differentiation [1]: significant neuronal differentiation
- degree of neuronal differentiation [2]: significant neuronal differentiation

Substance: YARAAARQARA-SLQDLCCRAVVSCTP (YARAAARQARASLQDLCCRAVVSCTP) [sample 10]
- degree of neuronal differentiation [1]: significant neuronal differentiation
- degree of neuronal differentiation [2]: significant neuronal differentiation

Substance: YARAAARQARA-TLLSLCRVAVRRALG (YARAAARQARATLLSLCRVAVRRALG) [sample 3]
- degree of neuronal differentiation [1]: significant neuronal differentiation
- degree of neuronal differentiation [2]: significant neuronal differentiation

Substance: YARAAARQARA-PLAHLCRLRVRKAIG (YARAAARQARAPLAHLCRLRVRKAIG) [sample 7]
- degree of neuronal differentiation [1]: significant neuronal differentiation
- degree of neuronal differentiation [2]: significant neuronal differentiation

Substance: YARAAARQARA-SLQHLCRFRIRQLVR (YARAAARQARASLQHLCRFRIRQLVR) [sample 4]
- degree of neuronal differentiation [1]: significant neuronal differentiation
- degree of neuronal differentiation [2]: significant neuronal differentiation

Substance: YARAAARQARA-SLQYLCRFVIRQYTK (YARAAARQARASLQYLCRFVIRQYTK) [sample 18]
- degree of neuronal differentiation [1]: significant neuronal differentiation
- degree of neuronal differentiation [2]: significant neuronal differentiation

Substance: YARAAARQARA-SLQYLCRFVI (YARAAARQARASLQYLCRFVI) [sample 15, PTD4 plus 10 residues from the N terminal of the BC-box of hSOCS-6]
- degree of neuronal differentiation [1]: significant neuronal differentiation
- degree of neuronal differentiation [2]: significant neuronal differentiation

Substance: YARAAARQARA-SLQYICRAVICRCTT (YARAAARQARASLQYICRAVICRCTT) [sample 9]
- degree of neuronal differentiation [1]: significant neuronal differentiation
- degree of neuronal differentiation [2]: significant neuronal differentiation

Substance: YARAAARQARA-SLQHLCRLVINRLVA (YARAAARQARASLQHLCRLVINRLVA) [sample 24]
- degree of neuronal differentiation [1]: significant neuronal differentiation
- degree of neuronal differentiation [2]: significant neuronal differentiation

Substance: YARAAARQARA-SLQYLCKFVI (YARAAARQARASLQYLCKFVI) [sample 22]
- degree of neuronal differentiation [1]: significant neuronal differentiation
- degree of neuronal differentiation [2]: significant neuronal differentiation

Substance: YARAAARQARA-SLQYLALKALVTPKK (YARAAARQARASLQYLALKALVTPKK-NH2) [sample 19]
- degree of neuronal differentiation [1]: significant neuronal differentiation
- degree of neuronal differentiation [2]: significant neuronal differentiation

Substance: YARAAARQARA-SLTHLCRLEIRSSIK (YARAAARQARASLTHLCRLEIRSSIK) [sample 8]
- degree of neuronal differentiation [1]: significant neuronal differentiation
- degree of neuronal differentiation [2]: significant neuronal differentiation

Substance: YARAAARQARA-SLKHLCRKALRSFLT (YARAAARQARASLKHLCRKALRSFLT) [sample 5]
- degree of neuronal differentiation [1]: significant neuronal differentiation
- degree of neuronal differentiation [2]: significant neuronal differentiation

Substance: YARAAARQARA-SLQFLALKALISERR (YARAAARQARASLQFLALKALISERR-NH2) [sample 21]
- degree of neuronal differentiation [1]: significant neuronal differentiation
- degree of neuronal differentiation [2]: significant neuronal differentiation

Substance: YARAAARQARA-SLQHICRTVICNCTT (YARAAARQARASLQHICRTVICNCTT) [sample 14]
- degree of neuronal differentiation [1]: significant neuronal differentiation
- degree of neuronal differentiation [2]: significant neuronal differentiation

Substance: YARAAARQARA-TLQHFCRLAINKCT (YARAAARQARATLQHFCRLAINKCT) [sample 12]
- degree of neuronal differentiation [1]: significant neuronal differentiation
- degree of neuronal differentiation [2]: significant neuronal differentiation

Substance: YARAAARQARA-SLQHICRMSIRRVMS (YARAAARQARASLQHICRMSIRRVMS) [sample 2]
- degree of neuronal differentiation [1]: significant neuronal differentiation
- degree of neuronal differentiation [2]: significant neuronal differentiation

Substance: YARAAARQARA-TLLSLCRVAV (YARAAARQARATLLSLCRVAV) [sample 16, PTD4 plus 10 residues from the N terminal of the BC-box of mASB-1]
- degree of neuronal differentiation [1]: significant neuronal differentiation
- degree of neuronal differentiation [2]: significant neuronal differentiation
